{"source": "patent US20220168325A1", "about": "“METHODS TO PROMOTE CEREBRAL BLOOD FLOW IN THE BRAIN” (THE UNIVERSITY OF VERMONT, priority 2019, published 2022)", "molecules": {"B1": {"name": "TIMP3: recombinant soluble TIMP3, matrix metalloproteinase inhibitor (protein, UniProt P35625 24-211, looked up)", "Metalloproteinase inhibitor 3": "CTCSPSHPQDAFCNSDIVIRAKVVGKKLVKEGPFGTLVYTIKQMKMYRGFTKMPHVQYIHTEASESLCGLKLEVNKYQYLLTGRVYDGKMYTGLCNFVERWDQLTLSQRKGLNYRYHLGCNCKIKSCYYLPCFVTSKNECLWTDMLSNFGYPGYQSKHYACIRQKGGYCSWYRGWAPPDKSIINATDP"}}, "key": {"Kir2.1 channel [1]": {"biological_target": "T1, Kir2.1 channel (Mus musculus, UniProt P35561)", "T1 sequence (P35561 1-428)": "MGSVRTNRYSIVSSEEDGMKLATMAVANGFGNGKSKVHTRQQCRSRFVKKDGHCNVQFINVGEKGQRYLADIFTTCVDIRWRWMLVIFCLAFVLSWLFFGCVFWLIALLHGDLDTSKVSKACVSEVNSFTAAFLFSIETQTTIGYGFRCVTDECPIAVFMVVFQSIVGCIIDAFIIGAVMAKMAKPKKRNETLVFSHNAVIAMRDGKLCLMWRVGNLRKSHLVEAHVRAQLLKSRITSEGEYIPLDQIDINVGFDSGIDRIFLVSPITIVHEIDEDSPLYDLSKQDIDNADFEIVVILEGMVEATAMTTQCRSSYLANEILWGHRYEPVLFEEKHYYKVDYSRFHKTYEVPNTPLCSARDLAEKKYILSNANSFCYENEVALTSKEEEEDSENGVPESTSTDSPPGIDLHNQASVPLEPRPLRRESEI", "test": "Patch-clamp recording of Kir2.1 currents in freshly isolated brain capillary endothelial cells (cECs)", "settings": "for Decline of Kir2.1 currents over 15 min: in pipette: 1 mM Mg-ATP, 1 mM Mg-ATP-γ-S, or 10 μM diC8-PIP2 with 0 mM Mg-ATP; for Effect of simultaneous PKC and IP3R/Ca2+ block on PGE2-mediated suppression of Kir2.1 currents: 1 μM Gö6976 + 30 μM CPA bath-applied + 5.4 mM BAPTA dialyzed together; for Effect of simultaneous PKC and IP3R/Ca2+ block on PGE2-mediated suppression of Kir2.1 currents / Effect on PGE2-induced reduction of Kir2.1 current: PGE2 2 μM, 0 mM Mg-ATP; for Effect on PGE2-induced reduction of Kir2.1 current: diC8-PIP2 10 μM dialyzed, U73122 10 μM bath, Gö6976 1 μM bath, BAPTA 5.4 mM dialyzed"}, "[2]": {"test_system": "capillary-to-arteriole electrical signaling", "test": "Ex vivo CaPA preparation from transgenic mice: arteriolar tone and dilation to capillary 10 mM K+", "settings": "for Arteriolar dilation in response to capillary stimulation with 10 mM K+: 1 mM 4-AP, 30 ng/mL HB-EGF bath, or exogenous PIP2 bath; for Myogenic tone of arteriolar segment: 1 mM 4-AP or 30 ng/mL HB-EGF"}, "functional hyperemia": {"test_system": "functional hyperemia", "test": "Whisker stimulation-induced functional hyperemia in vivo (laser Doppler flowmetry, somatosensory cortex)", "parameters": "species or system TgNotch3^WT and TgNotch3^R169C mice", "settings": "for CBF responses to whisker stimulation: 20 nM HB-EGF perfused over cranial window"}, "Kir2.1 channel [3]": {"biological_target": "T1, Kir2.1 channel", "test": "Patch-clamp Ba2+-sensitive Kir2.1 current in cECs from transgenic mice", "type": "cell-based, TgNotch3^WT and TgNotch3^R169C mice", "parameters": "freshly isolated capillary endothelial cells from TgNotch3^WT and TgNotch3^R169C brains; endogenous in cells; host or cells: freshly isolated brain capillary endothelial cells from TgNotch3^WT and TgNotch3^R169C mice (FVB/N background)", "settings": "HB-EGF (30 ng/ml, 20 minutes)"}, "[4]": {"test_system": "K+-evoked capillary hyperemia", "test": "In vivo two-photon imaging of K+-evoked capillary RBC flux through cranial window", "parameters": "species or system C57BL/6J mouse", "settings": "0-mM Ca2+ solution containing 200 μM diltiazem on cranial surface, end of experiment"}, "[5]": {"settings": "conventional whole-cell, dialyzed cECs"}, "[6]": {"settings": "cECs dialyzed with 1 mM Mg-ATP, PKC, PKG, PKA inhibitors"}, "[7]": {"settings": "dialyzed cECs, 1 mM Mg-ATP, 1 μM Gö6976, 10 μM Rp-8-Br-PET-cGMPS, 1 μM H-89"}}, "note": "Structures can show the parent of a compound that is named as a salt. Where two headings read alike, the source gives them in different places.", "data": [{"molecule": "CC(C)Oc1ccc2c(=O)c3cc(C(=O)O)ccc3oc2c1", "note": "[AH6809]", "values": [{"measurement": "Effect on inhibitory effect of PGE2 on Kir2.1 currents", "setting": "Kir2.1 channel [1]", "value": "prevented"}]}, {"molecule": "Nc1ncnc2c1ncn2[C@@H]1O[C@H](COP(=O)(O)OP(=O)(O)OP(O)(O)=S)[C@@H](O)[C@H]1O", "note": "[Mg-ATP-γ-S]", "values": [{"measurement": "Decline of Kir2.1 currents over 15 min", "setting": "Kir2.1 channel [1]; [5]", "value": "failed to avert current decay"}]}, {"molecule": "Cl.Cl.O=S(=O)(NCCNC/C=C/c1ccc(Br)cc1)c1cccc2cnccc12", "note": "[H-89 dihydrochloride]", "values": [{"measurement": "Effect on peak Kir2.1 current densities at -140 mV", "setting": "Kir2.1 channel [1]; [6]", "value": "absence of an effect"}, {"measurement": "Effect on Mg-ATP-mediated maintenance of Kir2.1 currents over 15 min", "setting": "Kir2.1 channel [1]; [7]", "value": "unaltered"}]}, {"molecule": "NC(=O)c1nc(Nc2ccccc2)sc1NC(=O)C1CCCCC1", "note": "[UNC3230, 5-[(Cyclohexylcarbonyl)amino]-2-(phenylamino)-thiazolecarboxamide]", "values": [{"measurement": "Kir2.1 currents 15 min after PIP2 synthesis inhibitor", "setting": "Kir2.1 channel [1]; perforated-patch (intact cytoplasm), PIK93 300 nM, phenylarsine oxide 10 μM, UNC3230 100 nM, bath-applied", "value": "yielded similar results"}]}, {"molecule": "O=C(O)CN(CC(=O)O)c1ccccc1OCCOc1ccccc1N(CC(=O)O)CC(=O)O", "note": "[BAPTA, 1,2-bis(2-aminophenoxy)ethane-N,N,N′,N′-tetraacetic acid]", "values": [{"measurement": "Effect of simultaneous PKC and IP3R/Ca2+ block on PGE2-mediated suppression of Kir2.1 currents", "setting": "Kir2.1 channel [1]", "value": "lack of an effect"}, {"measurement": "Effect on PGE2-induced reduction of Kir2.1 current", "setting": "Kir2.1 channel [1]; dialyzed cECs", "value": "no effect"}]}, {"molecule": "Nc1ccncc1", "note": "[4-aminopyridine]", "values": [{"measurement": "Arteriolar dilation in response to capillary stimulation with 10 mM K+", "setting": "[2]; TgNotch3^R169C CaPA", "value": "did not restore arteriolar dilation"}, {"measurement": "Myogenic tone of arteriolar segment", "setting": "[2]; TgNotch3^R169C", "value": "restores myogenic tone"}]}, {"molecule": "[Ba+2]", "note": "[Ba^2+]", "values": [{"measurement": "Effect on CBF responses to whisker stimulation", "setting": "functional hyperemia; 100 μM Ba2+, TgNotch3^R169C mice", "value": "had no effect"}, {"measurement": "Decrease of functional hyperemia", "setting": "functional hyperemia; 100 μM Ba2+, TgNotch3^WT mice", "value": 60, "unit": "%"}, {"measurement": "HB-EGF-mediated increase in functional hyperemia", "setting": "functional hyperemia; Ba2+ in presence of HB-EGF, CADASIL mice", "value": "inhibited"}, {"measurement": "K+-induced upstream vasodilation", "setting": "[2]; Ba2+, TgNotch3^R169C, Timp3^+/- mice", "value": "completely abolished"}, {"measurement": "Inwardly rectifying Kir2.1 currents, block", "setting": "Kir2.1 channel [1]", "value": "abolished"}]}, {"molecule": "HB-EGF: heparin-binding epidermal growth factor-like growth factor, EGFR ligand", "values": [{"measurement": "CBF responses to whisker stimulation", "setting": "functional hyperemia; CADASIL model (TgNotch3^R169C)", "value": "restored CBF responses to whisker stimulation in CADASIL model to control levels"}, {"measurement": "CBF responses to whisker stimulation", "setting": "functional hyperemia; control mice (TgNotch3^WT)", "value": "no significant effect"}, {"measurement": "Upstream arteriole response to 10 mM K+ on capillaries", "setting": "[2]; CaPA from endothelial specific Kir2.1^-/- (Kir channel deficient) mice, HB-EGF or soluble PIP2 present", "value": "without effect"}, {"measurement": "Time after restoration of myogenic tone until dilation to capillary K+ appeared", "setting": "[2]; HB-EGF 30 ng/mL, TgNotch3^R169C CaPA", "value": "17 ± 0.5", "unit": "min"}, {"measurement": "Arteriolar dilation in response to capillary stimulation with 10 mM K+", "setting": "[2]; TgNotch3^R169C CaPA", "value": "gradually increased to the amplitude observed in preparations from the control group"}, {"measurement": "Myogenic tone of arteriolar segment", "setting": "[2]; TgNotch3^R169C", "value": "also restored myogenic tone"}, {"measurement": "Arteriolar segment diameter", "setting": "[2]; bath HB-EGF 30 ng/mL, TgNotch3^R169C CaPA", "value": "rapid and sustained constriction"}, {"measurement": "Kir2.1 current density", "setting": "Kir2.1 channel [3]; TgNotch3^R169C cECs", "value": "restored it"}, {"measurement": "Kir2.1 current density", "setting": "Kir2.1 channel [3]; TgNotch3^WT cECs", "value": "had no effect"}]}, {"molecule": "O=c1c2nc(Br)n([C@@H]3O[C@@H]4CO[P@@](O)(=S)O[C@H]4[C@H]3O)c2nc2[nH]c(-c3ccccc3)cn12", "note": "[Rp-8-Br-PET-cGMPS]", "values": [{"measurement": "Effect on Mg-ATP-mediated maintenance of Kir2.1 currents over 15 min", "setting": "Kir2.1 channel [1]", "value": "unaltered"}, {"measurement": "Effect on peak Kir2.1 current densities at -140 mV", "setting": "Kir2.1 channel [1]", "value": "absence of an effect"}]}, {"molecule": "COc1ccc([C@@H]2Sc3ccccc3N(CCN(C)C)C(=O)[C@@H]2OC(C)=O)cc1", "note": "[diltiazem]", "values": [{"measurement": "Arteriolar diameter and capillary RBC flux (maximal response)", "setting": "[4]", "value": "dramatically dilated arterioles and enhanced capillary RBC flux"}]}, {"molecule": "CCCCCCCC(=O)OCC(COP(=O)(O)OC1C(O)C(O)C(OP(=O)(O)O)C(OP(=O)(O)O)C1O)OC(=O)CCCCCCC", "note": "(stereo not drawn) [diC8-PIP2, 1,2-Dioctanoyl phosphatidylinositol 4,5-bisphosphate sodium salt]", "values": [{"measurement": "Initial Kir2.1 currents (at t0)", "setting": "Kir2.1 channel [1]; conventional whole-cell, 0 mM Mg-ATP + 10 μM diC8-PIP2 in pipette", "value": "did not elevate initial Kir2.1 currents"}, {"measurement": "Decline of Kir2.1 currents over 15 min", "setting": "Kir2.1 channel [1]; [5]", "value": "largely abrogated the decline in Kir2.1 currents"}, {"measurement": "Effect on PGE2-induced reduction of Kir2.1 current", "setting": "Kir2.1 channel [1]; dialyzed cECs", "value": "completely abrogated"}]}, {"molecule": "Cn1c2ccccc2c2c3c(c4c5ccccc5n(CCC#N)c4c21)CNC3=O", "note": "[Gö6976, 12-(2-cyanoethyl)-6,7,12,13-tetrahydro-13-methyl-5-oxo-5H-indolo(2,3-a)pyrrolo(3,4-c)-carbazole]", "values": [{"measurement": "Effect of simultaneous PKC and IP3R/Ca2+ block on PGE2-mediated suppression of Kir2.1 currents", "setting": "Kir2.1 channel [1]", "value": "lack of an effect"}, {"measurement": "Effect on peak Kir2.1 current densities at -140 mV", "setting": "Kir2.1 channel [1]; [6]", "value": "absence of an effect"}, {"measurement": "Effect on PGE2-induced reduction of Kir2.1 current", "setting": "Kir2.1 channel [1]; dialyzed cECs", "value": "no effect"}, {"measurement": "Effect on Mg-ATP-mediated maintenance of Kir2.1 currents over 15 min", "setting": "Kir2.1 channel [1]; [7]", "value": "unaltered"}]}, {"molecule": "SLIGRL-NH2", "values": [{"measurement": "Effect on capillary Kir2.1 currents", "setting": "Kir2.1 channel [1]; perforated patch, 15 min, SLIGRL-NH2 5 μM", "value": "had no effect"}]}, {"molecule": "Nc1nc2c(ncn2[C@@H]2O[C@H](COP(=O)(O)OP(=O)(O)OP(=O)(O)O)[C@@H](O)[C@H]2O)c(=O)[nH]1", "note": "[Na-GTP]", "values": [{"measurement": "Effect on peak Kir2.1 current amplitude or kinetics of current decline", "setting": "Kir2.1 channel [1]; 100 μM Na-GTP in pipette alone or with 1 mM Mg-ATP", "value": "in neither setting did Na-GTP have an effect"}]}, {"molecule": "B1", "values": [{"measurement": "Arteriolar vasodilation induced by capillary stimulation with 10 mM K+", "setting": "[2]; TgNotch3^WT CaPA, bath 8 nM soluble recombinant TIMP3", "value": "gradually attenuated and, ultimately, abolished"}]}]}
